Consider 1 compound from patent US20190365697A1, “Method for Treating Liver Dysfunction” (PROFEAT BIOTECHNOLOGY CO., LTD., priority 2017, published 2019).

SMILES strings stand for the structures.

In this experiment the test system is dogs, whose liver functions were not improved after the administration of SAMe. Put plainly: Administration of SAMe followed by administration of Composition A1 to dogs; serum ALT, AST. The class given is in vivo. The conditions noted are these: SAMe alone to dogs, clinically observed. How it is done: Therefore, Composition A1 was administered to 3 dogs, whose liver functions were not improved after the administration of SAMe. And the serum biochemistry values related to the liver function, ALT, AST and ALKP, were examined.

Turning to `C[S+](CC[C@H](N)C(=O)[O-])C[C@H]1O[C@@H](n2cnc3c(N)ncnc32)[C@H](O)[C@@H]1O` (stereo partly shown) [SAMe, S-adenosylmethionine], the “improvement of liver functions” value is on record as “liver functions still cannot be improved”.
